Laboratory results: US20250295654A1, “METHODS OF TREATING METABOLIC DISEASES WITH FUSED BICYCLIC PYRAZOLES” (Belite Bio, Inc, priority 2019, published 2025)
Values joined by “and” are separate entries in the source; they are usually repeats but may differ in a detail not shown here. Equal entries are not always repeated. Marks after values point to notes of the source that are not given here.

Assays:
Format in all cases: in vivo
[1] = Compound 1 single dose rat PK study; details: male Sprague Dawley rats, single iv dose 2 mg/kg, first plasma collection time listed as Tmax
Procedure: A pharmacokinetic study of Compound 1 following a single intravenous or oral dose administration to male Sprague Dawley rats was conducted, the results of which are found in Table 3 and FIGS. 9-14.

[2] = Compound 1 single dose mouse PK study; details: male CD-1 mice, single iv dose 2 mg/kg; first plasma collection time
Procedure: A pharmacokinetic study of Compound 1 following a single intravenous or oral dose administration to male CD-1 mice was conducted, the results of which are found in Table 4 and FIGS. 15-20.

[3] = Compound 2 single dose rat PK study; details: male Sprague Dawley rats, single iv dose 2 mg/kg; for Tmax: first plasma collection time or observed time of highest plasma concentration
Procedure: A pharmacokinetic study of Compound 2 following a single intravenous or oral dose administration to male Sprague Dawley rats was conducted, the results of which are found in Table 5 and FIGS. 21-24.

In the case of `CC(=O)N1CCc2c(C(=O)N3CCC(c4ccc(F)c(F)c4C(F)(F)F)CC3)n[nH]c2C1` [Compound 1, 1-(3-(4-(3,4-difluoro-2-(trifluoromethyl)phenyl)piperidine-1-carbonyl)-1,4,5,7-tetrahydro-6H-pyrazolo[3,4-c]pyridin-6-yl)ethan-1-one], the Tmax ([1]; Mean) is reported as 4.98 min, the Tmax ([1]; individual rat) is reported as 4.98 min and the Tmax [2] is reported as 0.083^b hr.

With `CC(=O)N1Cc2[nH]nc(C(=O)N3CCC(c4ccc(F)c(F)c4C(F)(F)F)CC3)c2C1` [Compound 2, 1-(3-(4-(3,4-difluoro-2-(trifluoromethyl)phenyl)piperidine-1-carbonyl)-4,6-dihydropyrrolo[3,4-c]pyrazol-5(1H)-yl)ethan-1-one] the Tmax ([3]; Mean) was 13.3 min, the AUCinf ([3]; individual rat, 2 mg/kg) was 4027 ng·h/mL and 5052 ng·h/mL and the Cl ([3]; individual rat, 2 mg/kg) was 4.13 mL/min/kg and 3.3 mL/min/kg. For the same compound, the Tmax ([3]; individual rat, 2 mg/kg) was 4.98 min.
